Reference: patent US20100021918A1, “METHOD FOR ASSAYING ACTION OF ANTITUMOR AGENT USING SPLICING DEFECTS AS INDEX” (Eisai R&D Management Co., Ltd., priority 2007, published 2010)

System: human colon carcinoma cell strain WiDr
Assay: Microarray analysis (2), reviewed conditions, intron expression, Table 3
Type: cell-based
Details: treated vs control; for Fold Change (change in expression level of intron probe set): WiDr cells
Method: WiDr cells were first suspended in RPMI1640 medium (containing 10% FBS, penicillin, and streptomycin) and seeded in a 10 cm dish (2×10^6 cells/dish). After an overnight culture in an incubator with 5% carbon dioxide gas at 37° C., the medium was changed with medium containing 14 nM of (8E,12E,14E)-7-((4-cycloheptylpiperazin-1-yl)carbonyl)oxy-3,6,16,21-tetrahydroxy-6,10,12,16,20-pentamethyl-18,19-epoxytricosa-8,12,14-trien-11-olide or containing vehicle alone. After cultured for additional six hours, TRI reagent (SIGMA) were added to the cells and the cells were harvested. RNA was purified in accordance with the protocol of TRI reagent, followed by further purification with RNeasy (QIAGEN). Absorbance at 260 nm was measured to quantify an amount of RNA. This experiment was repeated three times and RNA samples (n=3) were prepared.
Ribosomal RNA was removed from 1 μg of each total RNA of control cells (n=3) and cells with the treatment (n=3) by using RiboMinus Human/Mouse Transcriptome Isolation Kit (Invitrogen). Single stranded cDNA synthesis, double stranded cDNA synthesis, cRNA synthesis, second single stranded cDNA synthesis, cDNA fragmentation, and cDNA labeling in order were carried out for the total RNA from which ribosomal RNA was removed, by using GeneChip Whole Transcript Sense Target Labeling and Control Reagents (Affymetrix) to make a cDNA probe. The cDNA probe was used for hybridization with Human Exon 1.0 ST Array (Affymetrix). The array was washed and stained, and luminescence intensity was measured by a scanner.
Analysis conditions were reviewed in the data used in Example 3. Genes containing increased introns upon treatment with (8E,12E,14E)-7-((4-cycloheptylpiperazin-1-yl)carbonyl)oxy-3,6,16,21-tetrahydroxy-6,10,12,16,20-pentamethyl-18,19-epoxytricosa-8,12,14-trien-11-olide were identified.
In order to consider the analysis conditions, variations in the data from the samples with identical conditions were studied. […] It turned out that, by analyzing under conditions where the expression level was more than 100 and change in the expression level was more than five times, a probe set with increased expression can be extracted.
Probe sets showing that the normalized change in the level expression of the probe set in the group with the treatment was more than 5 times; the expression level of the probe set and the gene in the group with the treatment were more than 100; and probe set annotation was “extended, full, free”, were picked out. Welch's t-test was conducted with the probe sets extracted for the treated group and the control group to determine a p and q value. A gene containing the probe sets with the q value of less than 5% was determined as a candidate gene with increased expression level of the intron regions (Table 3).
In Table 3, for each gene evaluated, gene name (Gene Name), abbreviated name (Gene Symbol), accession number (Accession), alias name (Synonym), transcription cluster number in Human Exon 1.0 ST Array (Human Exon 1.0 ST Array Transcript Cluster ID), chromosome number (Chromosome), type of strand (Strand), start region (Start), stop region (Stop), and change in expression level (Fold Change) were respectively shown.

CCC(O)C(C)C1OC1CC(C)(O)/C=C/C=C(\C)C1OC(=O)CC(O)CCC(C)(O)C(OC(=O)N2CCN(C3CCCCCC3)CC2)/C=C/C1C (stereo not drawn) [E7107, (8E,12E,14E)-7-((4-cycloheptylpiperazin-1-yl)carbonyl)oxy-3,6,16,21-tetrahydroxy-6,10,12,16,20-pentamethyl-18,19-epoxytricosa-8,12,14-trien-11-olide]
Fold Change (gene AMD1, intron expression): 7.90
Fold Change (gene ANLN, intron expression): 7.90
Fold Change (gene ANTXR2, intron expression): 7.51
Fold Change (gene API5, intron expression): 7.77
Fold Change (gene ATAD2, intron expression): 7.69
Fold Change (gene ATN1, change in expression level): 14.70
Fold Change (gene AZIN1, intron expression): 7.51
Fold Change (gene BAT1 // ATP6V1G2, intron expression): 7.87
Fold Change (change in expression level of intron probe set) (gene BAZ1B, transcript cluster 3056044): 5.01
Fold Change (gene BCL7B, intron expression): 7.82
Fold Change (gene BIRC6, change in expression level): 15.96
Fold Change (gene BNIP2, change in expression level): 15.96
Fold Change (change in expression level of intron probe set) (gene BTF3L4, transcript cluster 2336271): 5.01
Fold Change (gene C1orf160, intron expression): 7.69
Fold Change (gene C4orf30, intron expression): 7.53
Fold Change (gene C10orf119, intron expression): 7.55
Fold Change (gene C11orf57, intron expression): 7.54
Fold Change (gene C12orf44, intron expression): 7.51
Fold Change (gene C15orf42, change in expression level): 26.27
Fold Change (change in expression level of intron probe set) (gene CDCA5, transcript cluster 3377423): 5.02
Fold Change (gene CENTD1, intron expression): 7.60
Fold Change (gene CERK, intron expression): 7.52
Fold Change (gene CGI-09, change in expression level): 16.01
Fold Change (gene CHCHD3, intron expression): 7.75
Fold Change (gene CLK3, intron expression): 7.91
Fold Change (gene CRSP6, intron expression): 7.49
Fold Change (gene CSNK2A1 // CSNK2A1P, intron expression): 7.87
Fold Change (gene DDX17, change in expression level): 15.42
Fold Change (gene DDX18 // WNT8B, intron expression): 7.70
Fold Change (gene DDX23, change in expression level): 15.78
Fold Change (gene DEDD, intron expression): 7.89
Fold Change (gene DPH1 // OVCA2, intron expression): 7.64
Fold Change (gene EEF1A1, intron expression): 7.70
Fold Change (gene EEF1B2, intron expression): 7.78
Fold Change (gene EGFR, intron expression): 7.77
Fold Change (change in expression level of intron probe set) (gene EIF3S1, transcript cluster 3591963): 5.02
Fold Change (gene EIF4G2, intron expression): 7.60
Fold Change (gene FBXL11, intron expression): 7.57
Fold Change (change in expression level of intron probe set) (gene FBXO28, transcript cluster 2382336): 5.02
Fold Change (gene FDFT1, intron expression): 7.90
Fold Change (gene FEN1, change in expression level): 14.75
Fold Change (gene FOXM1, intron expression): 7.52
Fold Change (gene GDI1, intron expression): 7.73
Fold Change (gene GTF2H1, intron expression): 7.62
Fold Change (gene GTF3C2, intron expression): 7.63
Fold Change (gene GTPBP4, intron expression): 7.79
Fold Change (gene HIRA, intron expression): 7.82
Fold Change (gene HSP90AA1 // HSP90AA2 // HSP90AA6P, intron expression): 7.53
Fold Change (change in expression level of intron probe set) (gene IDH3B, transcript cluster 3895075): 5.01
Fold Change (gene ILF3, intron expression): 7.68
Fold Change (gene IRS2, intron expression): 7.68
Fold Change (gene ITGB4BP, intron expression): 7.55
Fold Change (gene ITGB6, intron expression): 7.88
Fold Change (gene JOSD3 // SNORA25 // SNORA32 // SNORA18, intron expression): 7.81
Fold Change (gene KCTD10, intron expression): 7.48
Fold Change (gene KIAA0174, change in expression level): 14.78
Fold Change (gene KIAA1967, intron expression): 7.49
Fold Change (gene KITLG, intron expression): 7.58
Fold Change (gene KLHL18, change in expression level): 15.00
Fold Change (gene MAP2K3, intron expression): 7.70
Fold Change (gene MAP3K11, intron expression): 7.77
Fold Change (gene MKL1, intron expression): 7.93
Fold Change (change in expression level of intron probe set) (gene MLL5, transcript cluster 3017547): 5.02
Fold Change (gene MRPL17, intron expression): 7.62
Fold Change (gene MTF2, intron expression): 7.63
Fold Change (gene MYST2, intron expression): 7.60
Fold Change (gene NDUFA5, intron expression): 7.48
Fold Change (gene NONO, intron expression): 7.64
Fold Change (gene NOP5/NOP58, intron expression): 7.73
Fold Change (gene PAK1IP1 // C20orf7, change in expression level): 15.04
Fold Change (gene PELI1, change in expression level): 27.36
Fold Change (gene PEX5, intron expression): 7.53
Fold Change (gene PHF12, intron expression): 7.73
Fold Change (change in expression level of intron probe set) (gene PIK4CB // RFX5, transcript cluster 2434925): 5.03
Fold Change (change in expression level of intron probe set) (gene POLR3O, transcript cluster 2432647): 5.01
Fold Change (gene POMZP3, intron expression): 7.56
Fold Change (gene PPP6C, intron expression): 7.91
Fold Change (gene PPRC1, intron expression): 7.86
Fold Change (gene PRPF40A, intron expression): 7.89
Fold Change (gene RBM5, intron expression): 7.69
Fold Change (gene RPS6KB1, intron expression): 7.73
Fold Change (gene SAFB2, intron expression): 7.64
Fold Change (gene SAPS3, change in expression level): 15.25
Fold Change (gene SDCCAG3 // SNAPC4, intron expression): 7.49
Fold Change (change in expression level of intron probe set) (gene SHB // CKAP2 // MCART1, transcript cluster 3205659): 5.00
Fold Change (gene SIN3A, intron expression): 7.60
Fold Change (gene SMAD5, intron expression): 7.77
Fold Change (gene SNIP1, intron expression): 7.72
Fold Change (gene SNRP70, intron expression): 7.52
Fold Change (gene SPOP, intron expression): 7.71
Fold Change (gene SPRED2, change in expression level): 15.03
Fold Change (change in expression level of intron probe set) (gene SPTLC2, transcript cluster 3573152): 5.02
Fold Change (gene STARD7, intron expression): 7.65
Fold Change (gene STIP1, intron expression): 7.71
Fold Change (gene SUPV3L1, change in expression level): 14.99
Fold Change (gene TBC1D10B, intron expression): 7.74
Fold Change (gene TCP1, intron expression): 7.92
Fold Change (gene THRAP1, intron expression): 7.84
Fold Change (gene TMEM2, intron expression): 7.52
Fold Change (gene TOP1, intron expression): 7.93
Fold Change (gene TXNDC9 // LYG2, intron expression): 7.69
Fold Change (gene UBE2J1, intron expression): 7.66
Fold Change (gene USP36, intron expression): 7.92
Fold Change (gene VAPA, intron expression): 7.56
Fold Change (gene WAC, intron expression): 7.92
Fold Change (gene WDR3, intron expression): 7.63
Fold Change (gene YIPF3 // C6orf154, intron expression): 7.61
Fold Change (gene YME1L1, intron expression): 7.84
Fold Change (gene YTHDF1, intron expression): 7.83
Fold Change (gene ZNF148, intron expression): 7.69
Fold Change (gene ZNF473, intron expression): 7.87
